In one test the target is T1, AURKB (Aurora B) enzyme (Homo sapiens, UniProt Q96GD4).
T1 construct: purchased Invitrogen PVR 130
Description: Aurora B HTRF assay. To be noted: read-out: AuroraB IC50. The class given is biochemical. Put shortly: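 Enzyme (5 nM final) and ULight-labelled PLK Ser137 peptide (50 nM) reacted 1 h at room temperature; a 30 μM final component was also present. Detection used EDTA-containing buffer with europium anti-phospho-PLK(Ser137) antibody at 2 nM, 1 h, then time-resolved FRET readout.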
For orientation: Time-resolved FRET reads energy transfer from a long-lived donor to a nearby acceptor.

The next test deals with T2, recombinant human FAK1 (Homo sapiens, UniProt Q05397).
T2 construct: fused on or other part: N-terminal 6xHis tag
Description: FAK1 HTRF assay. It is filed as biochemical. Put shortly: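 IC50 values derive from HTRF % inhibition (ratio 665/620 nm, Eu–anti-phosphotyrosine 0.1 nM, SA-APC 12 nM). The kinase step ran 45 min at room temperature, pairing 10 nM His-FAK1(692–end) from baculovirus with 0.5 μM gastrin Tyr87 biotin-peptide and a reagent at 10 μM final, pH 7.4. Compound dilutions began at 10 μM.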

The IC50 is the concentration at which inhibition is half-maximal.

T1 sequence (Q96GD4 whole entry): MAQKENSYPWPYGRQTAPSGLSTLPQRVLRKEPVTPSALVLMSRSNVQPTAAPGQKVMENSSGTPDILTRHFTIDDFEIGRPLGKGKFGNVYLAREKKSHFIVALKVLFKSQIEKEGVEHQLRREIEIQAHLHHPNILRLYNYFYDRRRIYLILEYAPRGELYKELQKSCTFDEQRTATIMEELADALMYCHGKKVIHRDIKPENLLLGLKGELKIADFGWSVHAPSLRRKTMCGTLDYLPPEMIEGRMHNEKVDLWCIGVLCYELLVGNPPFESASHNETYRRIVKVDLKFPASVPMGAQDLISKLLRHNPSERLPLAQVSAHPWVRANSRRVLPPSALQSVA
T2 sequence (Q05397 422-680 limits assumed): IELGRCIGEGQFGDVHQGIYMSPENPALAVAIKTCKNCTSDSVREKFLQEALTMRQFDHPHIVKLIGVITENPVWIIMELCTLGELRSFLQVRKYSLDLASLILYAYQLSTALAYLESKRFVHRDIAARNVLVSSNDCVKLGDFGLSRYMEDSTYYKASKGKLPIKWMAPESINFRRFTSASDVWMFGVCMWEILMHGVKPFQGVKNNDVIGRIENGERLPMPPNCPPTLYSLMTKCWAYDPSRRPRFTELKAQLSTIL

Turning to `FC(F)Oc1ccccc1Cn1ccc2cnc(Nc3ccc4ncsc4c3)nc21` [Example 36], the 50% inhibitory concentration (IC50) on AURKB (Aurora B) enzyme is over 1000 nM.

For the molecule `CC(=O)Nc1cccc(Nc2cc3c(cn2)cnn3Cc2ccccc2OC(F)F)c1` [Example 64], at AURKB (Aurora B) enzyme, the half-inhibitory concentration (IC50) is over 1000 nM.

As for `FC(F)Oc1ccccc1Cn1ncc2cnc(Nc3ccc4ncsc4c3)cc21` [Example 82], at AURKB (Aurora B) enzyme, the IC50 is over 1000 nM.

Consider `CN(c1ncccc1Cn1ncc2cnc(Nc3ccc4[nH]c(=O)[nH]c4c3)cc21)S(C)(=O)=O` [Example 142], for which, on recombinant human FAK1, the IC50 is under 20 nM.

Turning to `O=C1CCc2cc(Nc3ncc4ccn(S(=O)(=O)c5cccc6cccnc56)c4n3)ccc2N1` [Example 169], the IC50 on AURKB (Aurora B) enzyme and at recombinant human FAK1 was under 20 nM throughout.

As for `CN(c1ncccc1Cn1ccc2cnc(Nc3ccc(NCCO)cc3)nc21)S(C)(=O)=O` [Example 201], at AURKB (Aurora B) enzyme, the half-inhibitory concentration (IC50) was under 20 nM.

For the molecule `O=C1CCc2cc(Nc3ncc4ccn(Cc5cccnc5N5CCCS5(=O)=O)c4n3)ccc2N1` [Example 216], the 50% inhibitory concentration (IC50) at AURKB (Aurora B) enzyme and at recombinant human FAK1 was under 20 nM throughout.

With `O=S(=O)(c1cccc2nsnc12)n1ccc2cnc(Nc3ccc(N4CCNCC4)cc3)nc21` [Example 253], the IC50 on AURKB (Aurora B) enzyme and at recombinant human FAK1 was under 20 nM each time.

`Cn1cc(Nc2ncc3ccn(S(=O)(=O)c4cccc5cccnc45)c3n2)cn1` [Example 318]: the IC50 on AURKB (Aurora B) enzyme and at recombinant human FAK1 was under 20 nM each time.

`COc1cc(N2CCNCC2)ccc1Nc1cc2c(ccn2S(=O)(=O)c2cccc3cccnc23)cn1` [Example 330, N-(2-Methoxy-4-(piperazin-1-yl)phenyl)-1-(quinolin-8-ylsulfonyl)-1H-pyrrolo[3,2-c]pyridin-6-amine]: the IC50 at AURKB (Aurora B) enzyme and on recombinant human FAK1 was under 20 nM each time.

`Cc1cc(Nc2ncc3cnn(S(=O)(=O)c4cccc5cccnc45)c3n2)ccc1N1CCNCC1` [Example 332]: the 50% inhibitory concentration (IC50) on AURKB (Aurora B) enzyme and on recombinant human FAK1 was under 20 nM in each case.

In the case of `COc1ccccc1S(=O)(=O)n1ncc2cnc(Nc3ccc(N4CCNCC4)cc3)nc21` [Example 335], on AURKB (Aurora B) enzyme, the concentration for half-maximal inhibition (IC50) is under 20 nM.

For the molecule `CN(c1ncccc1Cn1ccc2cnc(Nc3ccc(N4CCCC4CO)cc3)nc21)S(C)(=O)=O` (stereo not shown) [Example 536], on recombinant human FAK1, the IC50 is under 20 nM.

Source of the values: patent US20160222014A1, “COMPOUNDS FOR REGULATING FAK AND/OR SRC PATHWAYS” (ASANA BIOSCIENCES, LLC, priority 2013, published 2016).
